In patent US20100311694A1, “Set of Geldanamycin Derivatives and Their Preparation Methods” (Institute of Medicinal Biotechnology, Chinese Academy of …, priority 2008, published 2010):

How the values were obtained:
HBV = assay: Anti-HBV activity (HBV DNA in cell lysate, spot hybridization); format: cell-based; details: HBV DNA content of the cells, reagent solution changed every 4 days
Method: Test Procedure for Anti-HBV Activity
Using cell culture method, the preparation of the cells to be tested (100,000 cell's/mL) is inoculated into cell culture plate in 100 μl each well and the cells are cultured 24 h at 37° C. in 5% CO2. Tests are carried out when the cells grow into a monolayer. The target compounds as well as the controls are prepared into a series of solutions of appropriate concentrations using the culture medium and are added into 96 well culture plate respectively in 4 wells per one concentration. Then the reagent solution in each well is changed into the fresh reagent solution with the same concentration every 4 days. A cell control without reagent treatment is simultaneously is set up. The observation index is based upon the pathological changes of the cells by observing the degrees of the pathological changes of the cells under microscope every 8 days. […] Cell control without drug treatment is simultaneously is set up. The reagent solution or control medium in each well is changed into the fresh reagent solution or fresh medium respectively every 4 days. After cytolysis of the cells, HBV DNA is extracted from the cell lysis solution according to the molecular cloning technical procedure. The spots of different samples are hybridized and the A values of different hybridized spots are measured using autoradiograghic technique. The HBV DNA contents in the cell control as well as in the drug treated samples are calculated using the regression equations obtained from the standard curves to obtain half effective concentration values, the results are shown in Table 1.

HIV-1 = assay: Anti HIV-1 activity (HIV-1 P24 antigen in cell cultures); format: cell-based; details: 4 days after addition of the reagents
Method: Test Procedure of Anti HIV-1 Activity
8 reagent solutions of different diluted concentrations and positive control solutions are added into cell cultures in 96 well plate respectively. The sample of each diluted solutions is made duplicately and a control cell sample is also is set up. 100 μl of cell sample at a concentration of 2×10^5cells/ml is inoculated into the wells containing reagent in the plate. The cells samples are cultured in a saturated humidity culture chamber (at a 5% CO2 atmosphere) at 37° C. The pathological changes of cells are observed daily.

Row | Compound | Activity of HBV inhibition IC50 (HBV) [µg/mL] | Activity of HIV inhibition IC50 (HIV-1) [µg/mL] | Activity of HBV inhibition IC50, μg/ml (HBV)
1 | 17-(4′-((5″-(4′″-amino-2′″-oxopyrimidine-1′″-(2H)-yl)-3″,4″-dihydroxyl-tetrahydrofuran-2″yl)methoxyl)-4′-oxobutylamino)-17-de methoxy geldanamycin [GM-CY] | 0.032 | 0.02 | 
2 | 17-(trans-4′-hydroxyl cyclohexylamino)-17-demethoxy geldanamycin [GM-223] |  | 0.10 | 
3 | 17-diethyloxy phosphoryl methylene amino-17-demethoxy geldanamycin [GM-GP] | 3.24 | 1.36 | 
4 | COC1C=CC=C(C)C(=O)NC2=CC(=O)C(NCCCn3ccnc3)=C(CC(C)CC(OC)C(O)C(C)C=C(C)C1OC(N)=O)C2=O (stereo not drawn) [GM-129, 17-(3′-(1″-imidazolyl)propylamino)-17-demethoxy geldanamycin] | 0.32 | 1.92 | 
5 | CCN1CCC[C@H]1CNC1=C2C[C@H](C)C[C@H](OC)[C@H](O)[C@@H](C)/C=C(\C)[C@@H](OC(N)=O)[C@@H](OC)/C=C/C=C(\C)C(=O)NC(=CC1=O)C2=O [GM-206S, 17-(2″S-2″-(N-ethylpyrrolidinyl)-methylamino)-17-demethoxy geldanamycin] | 0.064 | 0.01 | 
6 | CO[C@H]1/C=C/C=C(\C)C(=O)NC2=CC(=O)C(NCCc3ccc(S(N)(=O)=O)cc3)=C(C[C@H](C)C[C@H](OC)[C@H](O)[C@@H](C)/C=C(\C)[C@H]1OC(N)=O)C2=O [GM-208, 17-(4″-aminosulfonyl)phenylethylamino-17-demethoxy geldanamycin] |  | >0.82 | 
7 | CCN1CCCC1CNC1=C2CC(C)CC(OC)C(O)C(C)C=C(C)C(OC(N)=O)C(OC)C=CC=C(C)C(=O)NC(=CC1=O)C2=O (stereo not drawn) [GM-210R, 17-(2″R-2″-(N-ethylpyrrolidinyl)-methylamino)-17-demethoxy geldanamycin] | 0.064 | 0.01 | 
8 | COC1C=CC=C(C)C(=O)NC2=CC(=O)C(NCc3ccc4c(c3)OCO4)=C(CC(C)CC(OC)C(O)C(C)C=C(C)C1OC(N)=O)C2=O (stereo not drawn) [GM-217, 17-(3′,4′-(Methylenedioxy)benzylamino)-17-demethoxygeldanamycin] |  | 0.16 | 
9 | CO[C@H]1/C=C/C=C(\C)C(=O)NC2=CC(=O)C(NCCc3cccs3)=C(C[C@H](C)C[C@H](OC)[C@H](O)[C@@H](C)/C=C(\C)[C@H]1OC(N)=O)C2=O [GM-221, 17-(2′-thienylethylamino)-17-demethoxy geldanamycin] |  | 0.06 | 
10 | CO[C@H]1/C=C/C=C(\C)C(=O)NC2=CC(=O)C(NCCCN3CCCC3=O)=C(C[C@H](C)C[C@H](OC)[C@H](O)[C@@H](C)/C=C(\C)[C@H]1OC(N)=O)C2=O [GM-226, 17-(3′-(2″-pyrrolidonyl)propylamino)-17-demethoxy geldanamycin] | 1.6 | >0.14 | 
11 | CCN1CCCC1CNC1=C2C[C@H](C)C[C@H](OC)[C@H](O)[C@@H](C)/C=C(\C)[C@@H](OC(N)=O)[C@@H](OC)/C=C/C=C(\C)C(=O)NC(=CC1=O)C2=O (stereo partly drawn) [GM-228, 17-(2″-(N-ethylpyrrolidinyl)-methylamino)-17-demethoxy geldanamycin] |  | 0.009 | 0/01
12 | COc1ccc(C=CC(=O)NCCNC2=C3C[C@H](C)C[C@H](OC)[C@H](O)[C@@H](C)/C=C(\C)[C@@H](OC(N)=O)[C@@H](OC)/C=C/C=C(\C)C(=O)NC(=CC2=O)C3=O)cc1OC [GM-413, 17-(2′-(3″,4″-dimethylcaffeoyl amido)ethylamino)-17-demethoxy geldanamycin] | 0.32 | 0.48 | 
13 | COC1C=CC=C(C)C(=O)NC2=CC(=O)C(NCCNC(=O)c3cccnc3)=C(CC(C)CC(OC)C(O)C(C)C=C(C)C1OC(N)=O)C2=O (stereo not drawn) [GM-418, 17-(2′-nicotinamidoethylamino)-17-demethoxy geldanamycin] | 0.08 | 0.37 | 
14 | COC1C=CC=C(C)C(=O)NC2=CC(=O)C(NC3CCN(Cc4ccccc4)CC3)=C(CC(C)CC(OC)C(O)C(C)C=C(C)C1OC(N)=O)C2=O (stereo not drawn) [GM-ABPD, 17-(4′-benzyl-4′-azacyclohexylamino)-17-demethoxy geldanamycin] | 0.32 | <0.03 | 
15 | COC1C=CC=C(C)C(=O)NC2=CC(=O)C(NCCN3CCCCC3)=C(CC(C)CC(OC)C(O)C(C)C=C(C)C1OC(N)=O)C2=O (stereo not drawn) [GM-AEPD, 17-(2′-(1″-azacyclohexyl-1″-)ethylamino)-17-demethoxy geldanamycin] | 0.08 | <0.01 | 
16 | COC1C=CC=C(C)C(=O)NC2=CC(=O)C(NCC3CCNCC3)=C(CC(C)CC(OC)C(O)C(C)C=C(C)C1OC(N)=O)C2=O (stereo not drawn) [GM-AMPP] | 8.0 | 0.06 | 

Row | Compound | Activity of HBV inhibition IC50 (HBV) [µg/mL] | Activity of HIV inhibition IC50 (HIV-1) [µg/mL] | Activity of HBV inhibition IC50, μg/ml (HBV)
17 | COC1C=CC=C(C)C(=O)NC2=CC(=O)C(NCCN3CCOCC3)=C(CC(C)CC(OC)C(O)C(C)C=C(C)C1OC(N)=O)C2=O (stereo not drawn) [GM-APML, 17-(2′-(1″-oxa-4″-azacyclohexyl-1″-)ethylamino)-17-demethoxy geldanamycin] | 0.064 | <0.01 | 
18 | COC1C=CC=C(C)C(=O)NC2=CC(=O)C(NCC3CCC4CC3C4(C)C)=C(CC(C)CC(OC)C(O)C(C)C=C(C)C1OC(N)=O)C2=O (stereo not drawn) [GM-MTA, 17-(myrtanylamino)-17-demethoxy geldanamycin] | 0.32 | 0.04 | 
19 | COC1C=CC=C(C)C(=O)NC2=CC(=O)C(NCc3ccncc3)=C(CC(C)CC(OC)C(O)C(C)C=C(C)C1OC(N)=O)C2=O (stereo not drawn) [GM-W1] | 0.69 | 36.7 | 
20 | COC1C=CC=C(C)C(=O)NC2=CC(=O)C(NCc3cncc(C)n3)=C(CC(C)CC(OC)C(O)C(C)C=C(C)C1OC(N)=O)C2=O (stereo not drawn) [GM-W2] | 8.0 | 19.6 | 
21 | COC1C=CC=C(C)C(=O)NC2=CC(=O)C(NNC(=O)c3ccco3)=C(CC(C)CC(OC)C(O)C(C)C=C(C)C1OC(N)=O)C2=O (stereo not drawn) [GM-W4] | 3.2 | 0.33 | 
22 | COC1C=CC=C(C)C(=O)NC2=CC(=O)C(NCCS(=O)(=O)O)=C(CC(C)CC(OC)C(O)C(C)C=C(C)C1OC(N)=O)C2=O (stereo not drawn) [GM-W5] | 6.4 | 10.26 | 
23 | COC1C=CC=C(C)C(=O)NC2=CC(=O)C(NC(C)(CO)CO)=C(CC(C)CC(OC)C(O)C(C)C=C(C)C1OC(N)=O)C2=O (stereo not drawn) [GM-W6] | 1.32 | 1.47 | 
24 | COC1C=CC=C(C)C(=O)NC2=CC(=O)C(NC(C)(C)CO)=C(CC(C)CC(OC)C(O)C(C)C=C(C)C1OC(N)=O)C2=O (stereo not drawn) [GM-W7] | 8.0 | 9.89 | 
25 | COC1C=CC=C(C)C(=O)NC2=CC(=O)C(NCC(O)c3ccccc3)=C(CC(C)CC(OC)C(O)C(C)C=C(C)C1OC(N)=O)C2=O (stereo not drawn) [GM-W8] | 1.32 | 1.22 | 
26 | COC1C=CC=C(C)C(=O)NC2=CC(=O)C(NCC(O)c3ccccc3)=C(CC(C)CC(OC)C(O)C(C)C=C(C)C1OC(N)=O)C2=O (stereo not drawn) [GM-W9] | 3.2 | 2.46 | 
27 | COC1C=CC=C(C)C(=O)NC2=CC(=O)C(NCCc3ccc(N)cc3)=C(CC(C)CC(OC)C(O)C(C)C=C(C)C1OC(N)=O)C2=O (stereo not drawn) [GM-W10] | 6.4 | 40.71 | 
28 | COC1C=CC=C(C)C(=O)NC2=CC(=O)C(NN3CCCCC3)=C(CC(C)CC(OC)C(O)C(C)C=C(C)C1OC(N)=O)C2=O (stereo not drawn) [GM-W11] | 8.0 | 3.87 | 
29 | COC(CNC1=C2CC(C)CC(OC)C(O)C(C)C=C(C)C(OC(N)=O)C(OC)C=CC=C(C)C(=O)NC(=CC1=O)C2=O)OC (stereo not drawn) [GM-W12] | 3.2 | 0.46 | 
30 | COC1C=CC=C(C)C(=O)NC2=CC(=O)C(NCC(C)(C)CO)=C(CC(C)CC(OC)C(O)C(C)C=C(C)C1OC(N)=O)C2=O (stereo not drawn) [GM-W16] | 0.064 | 0.43 | 
31 | COC1C=CC=C(C)C(=O)NC2=CC(=O)C(NCCOS(=O)(=O)O)=C(CC(C)CC(OC)C(O)C(C)C=C(C)C1OC(N)=O)C2=O (stereo not drawn) [GM-W17] | 10.3 | 23.47 | 
32 | COC1C=CC=C(C)C(=O)NC2=CC(=O)C(NCCc3ccccn3)=C(CC(C)CC(OC)C(O)C(C)C=C(C)C1OC(N)=O)C2=O (stereo not drawn) [GM-W18] | 50.4 | 33.41 | 
